The numbers were not newly measured in patent US20090156670A1 (VENUS REMEDIES LIMITED, priority 2004, published 2009), which cites them from elsewhere.

The structures appear in SMILES notation.

The conditions of data set [1]: rheumatoid arthritis patients, long-term (6 months) study.
Another data set has as its target COX-I (Homo sapiens, UniProt P23219). To be noted: oral form.
A further data set has as its system CD44. As to conditions: human neutrophils.
The next data set deals with CD31. As to conditions: human neutrophils.
Data set [2] has as its system interleukin1β-induced prostaglandin E2 production.
The next data set deals with ICAM-3. As to conditions: human neutrophils.
A further data set concerns CD11a. As to conditions: human neutrophils.
Data set [3] has as its system adjuvant-induced polyarthritis. As to conditions: rats; prophylactically and therapeutically.
The conditions of data set [4]: rats.
The subject of the next data set is CD11b. To be noted: human neutrophils.
The subject of data set [5] is sodium urate-induced synovitis. To be noted: dogs; prophylactically and therapeutically.
For data set [6] the following is noted: pain elicited by chemical and mechanical stimuli.
For the next data set, the system named is CD43. As to conditions: human neutrophils.

COX-I, sequence (P23219 24-599): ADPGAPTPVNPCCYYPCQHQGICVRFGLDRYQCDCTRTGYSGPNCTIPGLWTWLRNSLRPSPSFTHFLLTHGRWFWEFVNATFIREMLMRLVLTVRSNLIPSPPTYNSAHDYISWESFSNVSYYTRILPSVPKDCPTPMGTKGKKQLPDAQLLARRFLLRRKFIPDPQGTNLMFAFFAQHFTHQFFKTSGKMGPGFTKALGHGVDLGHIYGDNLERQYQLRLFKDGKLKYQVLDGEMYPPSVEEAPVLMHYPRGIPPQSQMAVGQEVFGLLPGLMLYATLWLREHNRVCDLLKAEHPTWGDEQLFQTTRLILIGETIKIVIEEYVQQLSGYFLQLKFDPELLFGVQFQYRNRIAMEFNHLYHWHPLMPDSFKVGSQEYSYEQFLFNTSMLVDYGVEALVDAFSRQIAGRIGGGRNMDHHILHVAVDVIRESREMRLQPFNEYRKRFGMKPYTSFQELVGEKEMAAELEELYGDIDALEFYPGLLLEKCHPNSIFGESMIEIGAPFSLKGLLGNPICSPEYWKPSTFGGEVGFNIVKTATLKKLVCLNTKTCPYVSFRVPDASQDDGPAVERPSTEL

As to `O=C(O)Cc1ccccc1Nc1c(Cl)cccc1Cl` [diclofenac], in [1], the “incidence of gastrointestinal intolerance” value is on record as 17%.

On to `O=C(O)COC(=O)Cc1ccccc1Nc1c(Cl)cccc1Cl` [aceclofenac, 2-[(2,6-dichlorophenyl)amino]phenylacetoxyacetic acid], for which the COX-I inhibitor effect entry on COX-I is on record as “poor”. Further, in the data set on CD44, the CD44 expression entry is recorded as “unaffected”. Besides, the CD31 expression result in the data set on CD31 is reported as “unaffected”. Besides, the “interleukin1β-induced prostaglandin E2 production” value in data set [2] is “inhibits”. Further, the “incidence of gastrointestinal intolerance” value in data set [1] is given as 13%. The “decrement of ICAM-3 expression” value with ICAM-3 was “slight”. In addition, the CD11a expression entry with CD11a is “unaffected”. Besides, in data set [3], the “activity against adjuvant-induced polyarthritis” value is listed as “highly active”. Moreover, the “fever induced by brewer's yeast injection” value in data set [4] is on record as “markedly suppressed”. In addition, the CD11b expression entry in the data set with CD11b is “slightly increased”. Besides, the “activity against sodium urate-induced synovitis” value in data set [5] is listed as “highly active”. Further, in data set [6], the “analgesic effect compared with indometacin and diclofenac” value is on record as “nearly equal to or slightly better”. The “neutrophil aggregation induced with anti-CD43 Mab” value in the data set on neutrophil aggregation is “significantly inhibited”. In addition, the “decrement of CD43 expression” value with CD43 was “moderate”.
